From US9670220B2, “Fused heterocyclic derivatives as S1P modulators” (Abbvie B.V., priority 2010, dated 2017) come the findings set out here.

In one assay the target is human S1P5 receptor (Homo sapiens (Human), UniProt Q9H228). Put plainly: In vitro functional activity (agonism) on human S1P5 receptors, CHO-human-S1P5-Aequorin assay. To be noted: aequorin luminescence; for EC50: read-out: S1P5 pEC50 (converted). The class given is cell-based. How it is done:
In Vitro Functional Activity (Agonism) on Human 51P5 Receptors
The CHO-human-S1P5-Aeqorin assay was bought from Euroscreen, Brussels (Euroscreen, Technical dossier, Human Lysophospholid S1P5 (Edg8) receptor, DNA clone and CHO AequoScreen™ recombinant cell-line, catalog n°: ES-593-A, September 2006). Human-S1P5-Aequorin cells express mitochondrial targeted apo-Aequorin. […] This luminescent response is dependent on the agonist concentration. Luminescence is measured using the MicroBeta Jet (Perkin Elmer). Agonistic effects of compounds are expressed as pEC50.

The target of the next assay is human S1P3 receptor (Homo sapiens (Human), UniProt Q99500). The assay can be described thus: In vitro functional activity (agonism) on human S1P3 receptors, CHO-human-S1P3-Aequorin assay. The class given is cell-based. To be noted: aequorin luminescence; for EC50: read-out: S1P3 pEC50 (converted). How it is done: In Vitro Functional Activity (Agonism) on Human S1P3 Receptors
The CHO-human-S1P3-Aeqorin assay (CHO/Gα16/AEQ/h-S1P3) was established at Solvay Pharmaceuticals. […] This luminescent response is dependent on the agonist concentration. Luminescence is measured using the MicroBeta Jet (Perkin Elmer). Agonistic effects of compounds are expressed as pEC50.

Assay [1] addresses T1, human S1P1 receptor (Homo sapiens (Human), UniProt P21453). Put plainly: In vitro functional activity (agonism) on human S1P1 receptors (method B), CHO-K1-human S1P1 cAMP assay. The class given is cell-based. To be noted: determined using method B (cAMP, forskolin); for EC50: read-out: S1P1^B pEC50 (converted). As for the experimental part:
The CHO-K1-Human S1P1-c-AMP assay was performed at Euroscreenfast, Brussels (Euroscreen, Human S1P1 coupling Gi/0, (Edg1) receptor, catalog no: FAST-0197C, December 2009).
Recombinant CHO-K1 cells expressing human S1P1, grown to mid-log Phase in culture media without antibiotics, detached, centrifuged and re-suspended. For agonist testing cells are mixed with compound and Forskolin and incubated at room temperature. Cells are lyses and cAMP concentration are estimated, according to the manufacturer specification, With the HTRF kit from CIS-BIO International (cat n°62AM2PEB).
Agonistic effects of compounds are expressed as a percentage of the activity of the reference compound at its EC100 concentration, EC50 is calculated and results are reported as pEC50.
Background: cAMP levels reflect the balance of adenylyl cyclase and phosphodiesterase activity.

For assay [2], the target named is T1, human S1P1 receptor. To be noted: agonism, determined using method A (aequorin). The text has this:
In Vitro Functional Activity (Agonism) on Human S1P1 Receptors (Method A)
The CHO-K1-human-S1P1-Acqorin assay was bought from Euroscreen Fast, Brussels (Euroscreen, Technical dossier, Human S1P1 (Edg1) receptor, DNA clone and CHO-K1 AequoScreen™ recombinant cell-line, catalog n°: FAST-0197 L, February 2010). Human-S1P1-Aequorin cells express mitochondrial targeted apo-Aequorin. Cells have to be loaded with coelanterazine, in order to reconstitute active Aequorin. After binding of agonists to the human S1P1 receptor the intracellular calcium concentration increases and binding of calcium to the apo-Aequorin/coelenterazine complex leads to an oxidation reaction of coelenterazine, which results in the production of apo-Aequorin, coelenteramide, CO2 and light ([…]max 469 nm). This luminescent response is dependent on the agonist concentration. Luminescence is measured using the MicroBeta Jet (Perkin Elmer). Agonistic effects of compounds are expressed as pEC50. Compounds were tested at a 10 points half log concentration range, and 2 independent experiments were performed in single point's measurements.

Bounds are passed on as bounds.

human S1P3 receptor, sequence (Q99500 whole entry): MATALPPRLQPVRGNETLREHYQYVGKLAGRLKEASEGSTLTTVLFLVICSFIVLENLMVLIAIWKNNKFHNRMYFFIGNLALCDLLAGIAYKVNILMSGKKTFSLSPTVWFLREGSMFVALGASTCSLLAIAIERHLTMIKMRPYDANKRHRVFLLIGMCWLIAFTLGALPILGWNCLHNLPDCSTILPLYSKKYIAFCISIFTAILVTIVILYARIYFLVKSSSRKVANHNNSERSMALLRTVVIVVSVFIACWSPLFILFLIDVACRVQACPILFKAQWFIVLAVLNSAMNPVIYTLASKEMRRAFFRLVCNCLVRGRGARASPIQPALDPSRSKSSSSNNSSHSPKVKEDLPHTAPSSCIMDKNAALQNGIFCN
human S1P5 receptor, sequence (Q9H228 whole entry): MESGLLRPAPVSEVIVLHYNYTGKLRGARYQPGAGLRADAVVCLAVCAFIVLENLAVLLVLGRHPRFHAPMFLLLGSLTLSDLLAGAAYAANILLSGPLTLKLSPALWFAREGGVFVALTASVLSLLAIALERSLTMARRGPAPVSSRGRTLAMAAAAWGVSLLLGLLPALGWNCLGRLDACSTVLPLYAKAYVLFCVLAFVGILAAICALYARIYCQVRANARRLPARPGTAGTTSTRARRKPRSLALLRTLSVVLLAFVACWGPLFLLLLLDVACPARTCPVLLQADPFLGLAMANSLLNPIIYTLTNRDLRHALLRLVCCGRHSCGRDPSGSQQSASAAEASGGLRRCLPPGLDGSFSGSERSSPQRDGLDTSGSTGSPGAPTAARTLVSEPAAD
T1 sequence (P21453 whole entry): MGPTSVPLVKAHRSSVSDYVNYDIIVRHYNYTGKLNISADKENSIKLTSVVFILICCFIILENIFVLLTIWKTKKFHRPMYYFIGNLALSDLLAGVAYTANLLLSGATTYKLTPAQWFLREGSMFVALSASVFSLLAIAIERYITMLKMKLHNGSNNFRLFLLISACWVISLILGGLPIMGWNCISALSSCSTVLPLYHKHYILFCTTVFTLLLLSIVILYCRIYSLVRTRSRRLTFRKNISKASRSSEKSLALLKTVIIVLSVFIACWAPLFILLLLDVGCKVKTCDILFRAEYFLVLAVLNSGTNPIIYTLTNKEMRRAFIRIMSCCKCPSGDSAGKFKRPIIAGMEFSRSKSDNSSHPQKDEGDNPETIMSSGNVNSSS

As for `O=C(O)CCN1CCc2oc(-c3ccc(OCc4ccccc4F)cc3)cc2C1` [Compound 33, 3-{2-[4-(2-Fluoro-benzyloxy)-phenyl]-6,7-dihydro-4H-furo[3,2-c]pyridine-5-yl}-propionic acid], the EC50 is 15.8 nM on human S1P5 receptor, 3160 nM on human S1P3 receptor and 100 nM on human S1P1 receptor [1].

As to `O=C(O)CCCN1CCc2oc(-c3ccc(OCc4ccccc4F)cc3)cc2C1` [Compound 35, 4-{2-[4-(2-Fluoro-benzyloxy)-phenyl]-6,7-dihydro-4H-furo[3,2-c]pyridine-5-yl}-butyric acid], the figures for the EC50 at human S1P5 receptor, on human S1P3 receptor and at human S1P1 receptor [1] were 5.01 nM, 5010 nM and 251 nM, respectively.

As for `O=C(O)CCN1CCc2oc(-c3ccc(OCc4ccccc4)cc3)nc2C1` [Compound 47], the “S1P5 pEC50” value at human S1P5 receptor came to 8.0. In addition, on human S1P3 receptor, the “S1P3 pEC50” value is less than 5. The “S1P1^B pEC50” value on human S1P1 receptor [1] is reported as less than 5.5.

`O=C(O)CCCN1CCc2oc(-c3ccc(OCc4ccccc4)cc3)nc2C1` [Compound 53, 4-{2-[4-Benzyloxy-phenyl]-6,7-dihydro-H-oxazolo[4,5-c]pyridine-5-yl}-butyric acid]: the “S1P1^A pEC50” value at human S1P1 receptor [2] is given as less than 4.5. Further, the “S1P5 pEC50” value at human S1P5 receptor is recorded as 7.9. Moreover, at human S1P3 receptor, the “S1P3 pEC50” value was less than 5.

With `O=C(O)CCCN1CCc2oc(-c3ccc(OCc4cccc(F)c4F)cc3)nc2C1` [Compound 57], the “S1P5 pEC50” value on human S1P5 receptor is recorded as 8.0. Moreover, the “S1P3 pEC50” value on human S1P3 receptor was less than 5. Moreover, the “S1P1^B pEC50” value at human S1P1 receptor [1] was less than 5.5.

Take `O=C(O)CCCN1CCc2oc(-c3ccc(OCc4ccccc4F)cc3F)cc2C1` [Compound 73, 4-{2-[4-(2-Fluoro-benzyloxy)-2-fluoro-phenyl]-6,7-dihydro-4H-furo[3,2-c]-pyri-dine-5-yl}-butyric acid]: the “S1P5 pEC50” value at human S1P5 receptor is 8.2. Further, on human S1P3 receptor, the “S1P3 pEC50” value is on record as 6.3. The “S1P1^B pEC50” value on human S1P1 receptor [1] worked out at 8.0.

Regarding `CC(CC(=O)O)N1CCc2oc(-c3ccc(OCc4ccccc4)cc3)cc2C1` (stereo not drawn) [Compound 76, 3-{2-[4-Benzyloxy-phenyl]-6,7-dihydro-4H-furo[3,2-c]pyridine-5-yl}-butyric acid], the EC50 was 7.94 nM on human S1P5 receptor, greater than 10000 nM on human S1P3 receptor and 251 nM on human S1P1 receptor [1].

In the case of `CC(CN1CCc2oc(-c3ccc(OCc4ccc(Cl)cc4)cc3)cc2C1)C(=O)O` (stereo not drawn) [Compound 77, 3-{2-[4-(4-Chloro-benzyloxy)-phenyl]-6,7-dihydro-4H-furo[3,2-c]pyridine-5-yl}-2-methyl-propionic acid], the EC50 was 3.98 nM at human S1P5 receptor, 794 nM on human S1P3 receptor and 31.6 nM on human S1P1 receptor [1].

With `O=C(O)CCCN1CCc2oc(-c3ccc(OCc4ccc(C(F)(F)F)cc4)cc3F)nc2C1` [Compound 85, 4-{2-[4-(4-Trifluoromethyl-benzyloxy)-2-fluoro-phenyl]-6,7-dihydro-H-oxazolo[4,5-c]pyridine-5-yl}-butyric acid], the “S1P5 pEC50” value on human S1P5 receptor is reported as 8.6. The “S1P3 pEC50” value at human S1P3 receptor turned out to be 6.3. For the same compound, the “S1P1^B pEC50” value on human S1P1 receptor [1] was less than 5.5.

Consider `Cc1cc(OCc2ccccc2F)ccc1-c1nc2c(o1)CCN(CCCC(=O)O)C2` [Compound 89, 4-{2-[4-(2-Fluoro-benzyloxy)-2-methyl-phenyl]-6,7-dihydro-H-oxazolo[4,5-c]pyridine-5-yl}-butyric acid], for which the “S1P5 pEC50” value on human S1P5 receptor was 8.2. For the same compound, the “S1P3 pEC50” value on human S1P3 receptor is listed as less than 5.0. The “S1P1^B pEC50” value on human S1P1 receptor [1] is listed as 5.9.

For `CC(CN1CCc2oc(-c3ccc(OCc4ccccc4)cc3)nc2C1)C(=O)O` (stereo not drawn) [Compound 146, 3-[2-(4-Benzyloxy-phenyl)-6,7-dihydro-H-oxazolo[4,5-c]pyridine-5-yl]-2-methyl-propionic acid], the “S1P5 pEC50” value at human S1P5 receptor is reported as 7.8. In addition, the “S1P3 pEC50” value at human S1P3 receptor was less than 5.0. Further, the “S1P1^B pEC50” value on human S1P1 receptor [1] is recorded as less than 5.5.

Regarding `CC(CN1CCc2oc(-c3ccc(OCc4ccc(C(F)(F)F)cc4)cc3)nc2C1)C(=O)O` (stereo not drawn) [Compound 156, 3-{2-[4-(4-Trifluoromethyl-benzyloxy)-phenyl]-6,7-dihydro-H-oxazolo[4,5-c]pyridine-5-yl}-2-methyl-propionic acid], on human S1P5 receptor, the “S1P5 pEC50” value is reported as 8.4. Moreover, on human S1P3 receptor, the “S1P3 pEC50” value is listed as 5.5. Moreover, the “S1P1^B pEC50” value at human S1P1 receptor [1] is listed as 6.2.

Consider `CC(CN1CCc2oc(-c3ccc(OCc4ccc(Cl)cc4)cc3)nc2C1)C(=O)O` (stereo not drawn) [Compound 157, 3-{2-[4-(4-Chloro-benzyloxy)-phenyl]-6,7-dihydro-H-oxazolo[4,5-c]pyridine-5-yl}-2-methyl-propionic acid], for which the “S1P5 pEC50” value at human S1P5 receptor turned out to be 8.1. On human S1P3 receptor, the “S1P3 pEC50” value was determined as 5.3. Further, the “S1P1^B pEC50” value on human S1P1 receptor [1] is recorded as 6.2.

Turning to `CC(CC(=O)O)N1CCc2oc(-c3ccc(OCc4cccc(F)c4F)cc3)nc2C1` (stereo not drawn) [Compound 175], the “S1P5 pEC50” value on human S1P5 receptor stood at 8.3. In addition, on human S1P3 receptor, the “S1P3 pEC50” value was 5.8. The “S1P1^B pEC50” value at human S1P1 receptor [1] is listed as less than 5.5.

As for `O=C(O)CCCN1CCc2oc(-c3ccc(OCc4ccc(Cl)cc4)c(F)c3)nc2C1` [Compound 211, 4-{2-[4-(4-Chloro-benzyloxy)-3-fluoro-phenyl]-6,7-dihydro-H-oxazolo[4,5-c]pyridine-5-yl}-butyric acid], the “S1P5 pEC50” value at human S1P5 receptor came out at 8.3. Moreover, the “S1P3 pEC50” value on human S1P3 receptor is reported as less than 5.0. Also, at human S1P1 receptor [1], the “S1P1^B pEC50” value was determined as 6.1.

`O=C(O)CCCN1CCc2oc(-c3ccc(OCc4ccc(Cl)c(Cl)c4)cc3F)nc2C1` [Compound 227, 4-{2-[4-(3,4-Dichloro-benzyloxy)-2-fluoro-phenyl]-6,7-dihydro-H-oxazolo[4,5-c]pyridine-5-yl}-butyric acid]: the “S1P5 pEC50” value at human S1P5 receptor was 8.5. Further, the “S1P3 pEC50” value on human S1P3 receptor was less than 6.0. The “S1P1^B pEC50” value at human S1P1 receptor [1] came to 6.0.

For `CC(CN1CCc2oc(-c3ccc(OCc4ccc(C(F)(F)F)cc4)cc3F)nc2C1)C(=O)O` (stereo not drawn) [Compound 271, 3-{2-[4-(4-Trifluoromethyl-benzyloxy)-2-fluoro-phenyl]-6,7-dihydro-H-oxazolo[4,5-c]pyridine-5-yl}-2-methyl-propionic acid], the “S1P5 pEC50” value on human S1P5 receptor was 8.0. The “S1P3 pEC50” value on human S1P3 receptor is recorded as 5.4. Also, the “S1P1^B pEC50” value on human S1P1 receptor [1] stood at 6.2.

As to `O=C(O)C1CC(N2CCc3oc(-c4ccc(OCc5ccc(F)c(F)c5)cc4)nc3C2)C1` (stereo not drawn) [Compound 277, 3-{2-[4-(3,4-Difluorobenzyloxy)-phenyl]-6,7-dihydro-H-oxazolo[4,5-c]pyridine-5-yl}-cyclobutane carboxylic acid], the “S1P1^A pEC50” value at human S1P1 receptor [2] was determined as 5.2. In addition, on human S1P5 receptor, the “S1P5 pEC50” value was 8.5. Further, the “S1P3 pEC50” value at human S1P3 receptor is less than 5.0.

With `O=C(O)C1CC(N2CCc3oc(-c4ccc(OCc5ccc(F)c(F)c5)cc4)nc3C2)C1` (stereo not drawn) [Compound 278, 3-{2-[4-(3,4-Difluorobenzyloxy)-phenyl]-6,7-dihydro-H-oxazolo[4,5-c]pyridine-5-yl}-cyclobutane carboxylic acid], the “S1P1^A pEC50” value at human S1P1 receptor [2] is recorded as less than 5. In addition, at human S1P5 receptor, the “S1P5 pEC50” value is reported as 7.4. The “S1P3 pEC50” value on human S1P3 receptor is less than 5.

For `O=C(O)CCCN1CCc2oc(-c3ccc(OCc4ccccc4F)c(Cl)c3)nc2C1` [Compound 283, 4-{2-[4-(2-Fluoro-benzyloxy)-3-chloro-phenyl]-6,7-dihydro-H-oxazolo[4,5-c]pyridine-5-yl}-butyric acid], the “S1P1^A pEC50” value at human S1P1 receptor [2] is reported as less than 4.5. For the same compound, the “S1P5 pEC50” value at human S1P5 receptor amounted to 7.7. Besides, the “S1P3 pEC50” value at human S1P3 receptor is less than 5.

Consider `O=C(O)C1CC(N2CCc3oc(-c4ccc(OCc5ccc(OC(F)(F)F)cc5)cc4)nc3C2)C1` (stereo not drawn) [Compound 306, 3-{2-[4-(4-Trifluoromethoxybenzyloxy)-phenyl]-6,7-dihydro-H-oxazolo[4,5-c]pyridine-5-yl}-cyclobutane carboxylic acid], for which the “S1P1^A pEC50” value on human S1P1 receptor [2] is reported as less than 5. For the same compound, at human S1P5 receptor, the “S1P5 pEC50” value is listed as 8.1. Further, at human S1P3 receptor, the “S1P3 pEC50” value is less than 5.0.

As to `O=C(O)C1CC(N2CCc3oc(-c4ccc(OCc5ccc(OC(F)(F)F)cc5)cc4)nc3C2)C1` (stereo not drawn) [Compound 307, 3-{2-[4-(4-Trifluoromethoxybenzyloxy)-phenyl]-6,7-dihydro-H-oxazolo[4,5-c]pyridine-5-yl}-cyclobutane carboxylic acid], the “S1P1^A pEC50” value on human S1P1 receptor [2] is less than 5. Further, the “S1P5 pEC50” value on human S1P5 receptor was 7.3. Moreover, at human S1P3 receptor, the “S1P3 pEC50” value was less than 5.0.
